The supplement of paper PMC12076712
Each block holds one molecule with its values, some of them ahead of it.

Assays:
Assay in all cases: pIC50, kinobeads binding competition
DYRK1B = DYRK1B (UniProt Q9Y463)
Summary of the method: (§1)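 Fold changes relative to vehicle, from biological duplicates, were fitted with logistic dose-response models in the R drc package to give pIC50. These fold changes came from TMT10 LC-MS/MS quantification of digested Kinobeads-bound proteins. Compound was applied at nine concentrations (top 30 μM) either to live Jurkat cells in 1:4 steps for 60 min at 37 °C before lysis, or to Jurkat lysate or a 1:1:1:1 HEK293/K-562/HepG2/placenta lysate mix in 1:5 steps for 60 min at 4 °C.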

FER = FER (UniProt P16591)
Summary of the method: as §1

HIPK3 = HIPK3 (UniProt Q9H422)
Summary of the method: as §1

PCTK3 = PCTK3 (UniProt Q07002)
Summary of the method: as §1

PDIK1L = PDIK1L (UniProt Q8N165)
Summary of the method: as §1

PIM1 = PIM1 (UniProt P11309); details: cell material: Lysate mix
Summary of the method: as §1

UniProt O60285 = target: T1, UniProt O60285; details: cell material: Lysate mix
T1 sequence (whole entry): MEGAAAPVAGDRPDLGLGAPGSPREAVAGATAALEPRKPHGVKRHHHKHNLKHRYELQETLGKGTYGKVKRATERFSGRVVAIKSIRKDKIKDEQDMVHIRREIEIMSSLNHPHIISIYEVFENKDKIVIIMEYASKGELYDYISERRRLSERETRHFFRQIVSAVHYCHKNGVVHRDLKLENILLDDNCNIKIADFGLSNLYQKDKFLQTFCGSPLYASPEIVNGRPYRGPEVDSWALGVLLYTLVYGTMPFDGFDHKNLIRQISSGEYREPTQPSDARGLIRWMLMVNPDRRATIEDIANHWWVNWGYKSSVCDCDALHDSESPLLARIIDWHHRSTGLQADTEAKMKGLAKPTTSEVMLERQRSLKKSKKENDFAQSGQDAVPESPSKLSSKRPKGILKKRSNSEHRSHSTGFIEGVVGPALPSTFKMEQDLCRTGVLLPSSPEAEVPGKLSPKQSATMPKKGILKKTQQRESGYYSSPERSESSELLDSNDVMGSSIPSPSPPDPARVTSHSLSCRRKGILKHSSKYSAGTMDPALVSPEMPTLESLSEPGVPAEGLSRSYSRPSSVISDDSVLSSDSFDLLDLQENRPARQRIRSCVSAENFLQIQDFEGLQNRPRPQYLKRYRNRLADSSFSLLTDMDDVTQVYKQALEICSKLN
Summary of the method: as §1

UniProt P19784 = target: UniProt P19784
Summary of the method: as §1

UniProt P35968 = details: cell material: Lysate mix
Summary of the method: as §1

UniProt P48730 = target: UniProt P48730
Summary of the method: as §1

UniProt Q13164 = target: UniProt Q13164
Summary of the method: as §1

UniProt Q16513 = target: UniProt Q16513
Summary of the method: as §1

UniProt Q5VT25 = target: UniProt Q5VT25
Summary of the method: as §1

UniProt Q8TBX8 = target: T2, UniProt Q8TBX8
T2 sequence (whole entry): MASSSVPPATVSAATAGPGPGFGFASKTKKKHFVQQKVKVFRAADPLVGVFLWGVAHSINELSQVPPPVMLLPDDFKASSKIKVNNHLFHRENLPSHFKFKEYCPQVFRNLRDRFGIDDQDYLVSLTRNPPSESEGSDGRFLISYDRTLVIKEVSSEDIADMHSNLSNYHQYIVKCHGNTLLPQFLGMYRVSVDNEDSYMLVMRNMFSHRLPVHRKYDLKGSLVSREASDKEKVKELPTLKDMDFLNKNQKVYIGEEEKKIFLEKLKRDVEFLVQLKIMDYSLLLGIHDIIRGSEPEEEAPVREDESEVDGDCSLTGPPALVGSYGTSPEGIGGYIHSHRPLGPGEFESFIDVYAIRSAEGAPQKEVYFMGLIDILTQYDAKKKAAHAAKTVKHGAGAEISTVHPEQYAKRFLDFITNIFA
Summary of the method: as §1

UniProt Q8TF76 = target: T3, UniProt Q8TF76
T3 sequence (whole entry): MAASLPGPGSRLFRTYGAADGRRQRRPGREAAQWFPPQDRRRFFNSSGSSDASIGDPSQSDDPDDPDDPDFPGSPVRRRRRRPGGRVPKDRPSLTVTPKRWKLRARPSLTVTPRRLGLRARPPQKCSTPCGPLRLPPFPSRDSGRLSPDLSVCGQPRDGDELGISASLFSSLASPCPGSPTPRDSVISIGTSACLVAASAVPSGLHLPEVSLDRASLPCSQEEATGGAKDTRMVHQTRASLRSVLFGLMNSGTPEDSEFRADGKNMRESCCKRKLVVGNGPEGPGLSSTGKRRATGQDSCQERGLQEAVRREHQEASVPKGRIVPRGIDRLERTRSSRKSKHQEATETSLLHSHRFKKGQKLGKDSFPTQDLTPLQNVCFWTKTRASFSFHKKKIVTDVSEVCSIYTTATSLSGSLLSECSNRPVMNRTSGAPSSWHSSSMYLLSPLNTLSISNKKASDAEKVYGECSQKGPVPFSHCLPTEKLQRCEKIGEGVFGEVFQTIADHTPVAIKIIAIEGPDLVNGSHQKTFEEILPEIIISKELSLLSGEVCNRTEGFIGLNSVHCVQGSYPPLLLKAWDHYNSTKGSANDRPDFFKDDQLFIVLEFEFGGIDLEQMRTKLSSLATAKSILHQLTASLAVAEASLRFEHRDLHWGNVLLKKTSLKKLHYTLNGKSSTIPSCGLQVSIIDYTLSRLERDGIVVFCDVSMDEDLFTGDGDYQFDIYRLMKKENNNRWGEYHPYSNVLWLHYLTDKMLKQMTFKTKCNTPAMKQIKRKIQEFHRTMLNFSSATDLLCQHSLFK
Summary of the method: as §1

UniProt Q9NSY1 = target: UniProt Q9NSY1
Summary of the method: as §1

SMILES: C#CCNC(=O)c1cc(Nc2cc(C3CC3)[nH]n2)nc(N2CCN(Cc3ccc(S(=O)(=O)F)cc3)CC2)n1
- pIC50 (DYRK1B; cell material: Jurkat cells): 5.47
- pIC50 (DYRK1B; cell material: Jurkat lysate): < 4.52
- pIC50 (DYRK1B; cell material: Lysate mix): < 4.52
- pIC50 (FER; cell material: Jurkat cells): 6.2
- pIC50 (FER; cell material: Jurkat lysate): 5.44
- pIC50 (FER; cell material: Lysate mix): 5.92
- pIC50 (HIPK3; cell material: Jurkat cells): 5.92
- pIC50 (HIPK3; cell material: Jurkat lysate): 4.89
- pIC50 (HIPK3; cell material: Lysate mix): 5.76
- pIC50 (PCTK3; cell material: Jurkat cells): 6.2
- pIC50 (PCTK3; cell material: Jurkat lysate): < 4.52
- pIC50 (PCTK3; cell material: Lysate mix): 5.2
- pIC50 (PDIK1L; cell material: Jurkat cells): 6.16
- pIC50 (PDIK1L; cell material: Jurkat lysate): 5.61
- pIC50 (PDIK1L; cell material: Lysate mix): 5.64
- pIC50 (PIM1): < 4.52
- pIC50 (UniProt O60285): 4.83
- pIC50 (UniProt P19784; cell material: Jurkat cells): 5.66
- pIC50 (UniProt P19784; cell material: Jurkat lysate): < 4.52
- pIC50 (UniProt P19784; cell material: Lysate mix): 4.96
- pIC50 (UniProt P35968): < 4.52
- pIC50 (UniProt P48730; cell material: Jurkat lysate): < 4.52
- pIC50 (UniProt P48730; cell material: Lysate mix): < 4.52
- pIC50 (UniProt Q13164; cell material: Jurkat cells): 5.69
- pIC50 (UniProt Q13164; cell material: Jurkat lysate): < 4.52
- pIC50 (UniProt Q13164; cell material: Lysate mix): 5.14
- pIC50 (UniProt Q16513; cell material: Jurkat cells): 5.32
- pIC50 (UniProt Q16513; cell material: Jurkat lysate): < 4.52
- pIC50 (UniProt Q16513; cell material: Lysate mix): < 4.52
- pIC50 (UniProt Q5VT25; cell material: Jurkat cells): 5.28
- pIC50 (UniProt Q5VT25; cell material: Jurkat lysate): < 4.52
- pIC50 (UniProt Q5VT25; cell material: Lysate mix): < 4.52
- pIC50 (UniProt Q8TBX8; cell material: Jurkat cells): 5.4
- pIC50 (UniProt Q8TBX8; cell material: Jurkat lysate): < 4.52
- pIC50 (UniProt Q8TBX8; cell material: Lysate mix): < 4.52
- pIC50 (UniProt Q8TF76; cell material: Jurkat cells): 5.26
- pIC50 (UniProt Q8TF76; cell material: Jurkat lysate): < 4.52
- pIC50 (UniProt Q8TF76; cell material: Lysate mix): < 4.52
- pIC50 (UniProt Q9NSY1; cell material: Jurkat cells): 5.24
- pIC50 (UniProt Q9NSY1; cell material: Jurkat lysate): < 4.52
- pIC50 (UniProt Q9NSY1; cell material: Lysate mix): < 4.52

- pIC50 (DYRK1B; cell material: Lysate mix): < 4.52
- pIC50 (FER; cell material: Lysate mix): 4.72
- pIC50 (HIPK3; cell material: Lysate mix): 4.62
- pIC50 (PCTK3; cell material: Lysate mix): < 4.52
- pIC50 (PDIK1L; cell material: Lysate mix): 5.5
- pIC50 (PIM1): < 4.52
- pIC50 (UniProt O60285): < 4.52
- pIC50 (UniProt P19784; cell material: Lysate mix): 5.1
- pIC50 (UniProt P35968): < 4.52
- pIC50 (UniProt P48730; cell material: Lysate mix): < 4.52
- pIC50 (UniProt Q13164; cell material: Lysate mix): 4.6
- pIC50 (UniProt Q16513; cell material: Lysate mix): < 4.52
- pIC50 (UniProt Q5VT25; cell material: Lysate mix): < 4.52
- pIC50 (UniProt Q8TBX8; cell material: Lysate mix): < 4.52
- pIC50 (UniProt Q8TF76; cell material: Lysate mix): < 4.52
- pIC50 (UniProt Q9NSY1; cell material: Lysate mix): < 4.52
SMILES: CCNC(=O)c1cc(Nc2cc(C)[nH]n2)nc(N2CCN(Cc3ccc(S(=O)(=O)F)cc3)CC2)n1

- pIC50 (DYRK1B; cell material: Lysate mix): 5.08
- pIC50 (FER; cell material: Lysate mix): 5.62
- pIC50 (HIPK3; cell material: Lysate mix): 5.74
- pIC50 (PCTK3; cell material: Lysate mix): 5.36
- pIC50 (PDIK1L; cell material: Lysate mix): 5.89
- pIC50 (PIM1): < 4.52
- pIC50 (UniProt O60285): 4.98
- pIC50 (UniProt P19784; cell material: Lysate mix): 5.47
- pIC50 (UniProt P35968): < 4.52
- pIC50 (UniProt P48730; cell material: Lysate mix): < 4.52
- pIC50 (UniProt Q13164; cell material: Lysate mix): 5.16
- pIC50 (UniProt Q16513; cell material: Lysate mix): < 4.52
- pIC50 (UniProt Q5VT25; cell material: Lysate mix): < 4.52
- pIC50 (UniProt Q8TBX8; cell material: Lysate mix): < 4.52
- pIC50 (UniProt Q8TF76; cell material: Lysate mix): < 4.52
- pIC50 (UniProt Q9NSY1; cell material: Lysate mix): < 4.52
SMILES: CCNC(=O)c1cc(Nc2cc(C3CC3)[nH]n2)nc(N2CCN(Cc3ccc(S(=O)(=O)F)cc3)CC2)n1
